The text below walks through data of ChEMBL document CHEMBL1124903 (J Med Chem, 1990).

Each structure is given as a SMILES string.

This data set in a line: Half life (T 1/2) estimated in the absence of light, in 50 mM Tris-HCl 1 mM EDTA (pH 7.4) buffer. The note with it: 50 mM Tris-HCl 1 mM EDTA buffer. It is filed as ADME.
Consider `CC(c1ccc(Cl)cc1)N1CCC2(CC1)C(=O)NCN2c1ccc(N=[N+]=[N-])cc1` (centres undefined), for which the half-life is over 24 h. To `CN(c1ccc(N=[N+]=[N-])cc1)C1CCC2(O)C3Cc4ccc(O)c5c4C2(CCN3CC2CC2)C1O5` (centres undefined) belongs over 24 h. Take `CC(c1ccc(Cl)cc1)N1CCC2(CC1)C(=O)NCN2c1ccc([N+]#N)cc1` (centres undefined): the half-life is 5 h.

`CN(c1ccc([N+]#N)cc1)C1CCC2(O)C3Cc4ccc(O)c5c4C2(CCN3CC2CC2)C1O5` (centres undefined) [NALTREXONEDIAZONIUM]: the half-life was 5 h.
